# Assay results: patent US5629298A, “Adenosine as a positive inotrop in the compromised heart” (University of Massachusetts Medical Center, priority 1995, dated 1997)
# Experiments:
# rat ventricular myocytes = experiment: Contractile function of individual ventricular myocytes (line scan camera edge detection, paced at 0.5 Hz); format: cell-based
# Method: Primary cultures of adult rat ventricular myocytes were prepared essentially according to previously described methods (Romano et al., Am. J. Physiol. 257:H1088 (1989)). Two male Sprague-Dawley rats (Charles River, Wilmington, Mass. or Harlan, Indianapolis, Ind.) were decapitated, and the hearts were rapidly excised and constant pressure (70 cm H2) and nonrecirculated) perfused for 10 minutes through the aortas with filtered (0.45 μm membrane filter) perfusing solution (NaCl, 118 mM; glucose, 10 mM; NaHCO3 25 mM; KCl, 4.69 mM; MgSO4 1.18 mM; and KH2 PO4, 1.18 mM; (pH 7.4)), to which […] was added, at 37° C. After equilibration, the hearts were constant pressure perfused with fresh physiological saline ("PS") containing no added Ca^2+ until spontaneous contractions ceased (i.e., ~30 seconds). The hearts were then perfused for 4-10 minutes in a nonrecirculating manner with PS containing 0.73 mg/ml collagenase, 0.16 mg/ml hyaluronidase, 1 mg/ml recrystallized bovine serum albumin ("BSA") and 48.4 μM Ca^2+ at a rate of 3-4 ml/min/heart. Ventricles, free of atria, were removed from the perfusion system, cut into 8 pieces and placed in a 50 ml Erlenmeyer flask with 5 ml of PS containing 0.73 mg/ml collagenase, 0.16 mg/ml hyaluronidase, 2.5 mg/ml BSA, and 50 μM Ca^2+ (incubation solution). The flask was gently shaken (40 cycles/min) in a reciprocating water bath with continuous gassing (95% O2, 5% CO2) for 7 minutes at 37° C. The incubation solution was aspirated and this shaking procedure was repeated with fresh incubation solution 3-5 times depending on the likelihood that the tissue was ready to dissociate. After the final incubation period, the solution was aspirated and replaced with 10 ml of fresh incubation solution. The flask was then shaken rapidly (120 cycles/min) for 10 minutes with gassing to dissociate the myocytes. The flask contents were filtered through a 250 μm nylon mesh into a 50 ml polypropylene centrifuge tube, to which 40 ml of PS containing 5.95 mg/ml BSA and 99.7 μm Ca^2+ (wash solution) was gradually added.
# The myocytes were allowed to settle for 15 minutes, and the upper two thirds of the wash solution was aspirated. Upon the addition of 30-35 ml of wash solution, this settling step was repeated. The wash solution was aspirated and the myocyte pellet was resuspended in 10 ml of minimum essential medium ("MEM"). The myocyte suspension was allowed to settle for 5 minutes and then brought to a final volume of 22 ml with MEM. Two milliliters of the myocyte suspension was seeded onto each of 60 mm culture dishes containing 2 ml of MEM.
# The contractile function of individual myocytes was assessed by dispersing 50-100 cells in a 506 μl myocyte chamber (11×23×2 mm deep). The chamber (FIG. 1) was continuously suffused (850 μl/min) with fresh suffusion solution ("SS") in mM: 136.4 NaCl, 4.7 KCl, 1.0 CaCl2, 10 hydroxyethylpiperzine-ethanesulfonicacid (HEPES), 1.0 NaHCO3, 1.2 MgSO4, 1.2 KH2 PO4, 10 glucose, 0.6 ascorbate, 1.0 pyruvate) at 20° C. The chamber was mounted on an inverted microscope stage and contained platinum wire electrodes for initiating myocyte contraction at 0.5 Hz (voltage 10% above threshold for 5 msec duration).
# The image of the myocyte was projected via an inverted microscope at 300× onto a line scan camera (Fairchild, Model 1600R) containing a linear array (1×3456) of photodiodes. When aligned with the longitudinal axis of the cell the camera detected the movement of the 2 ends of the myocyte upon contraction (shortening and relengthening). […] When the myocyte was transilluminated, both ends of the cell were easily discriminated. Myocyte length and length change with respect to time for a single contraction was measured by determining the pixels in which the appropriate transitions between light and dark occurred. The line scan camera was calibrated with a stage micrometer scaled in 10 μm divisions. The signals from the camera were directed to a Hewlett Packard computer (Model Vectra RS/20C). […]
# [1] = tested on: ventricular myocyte membrane adenylyl cyclase; experiment: Adenylyl cyclase activity of ventricular myocyte membranes; format: biochemical, rat; conditions: adenosine at 0 to 1 mM, absence or presence of 1 μM DPCPX; ventricular myocyte membranes
# Method: After a 3-4 hour incubation period, myocytes were harvested by placing the culture dishes on ice; aspirating and discarding the culture medium; scraping the attached cells into 1 ml of ice cold buffer (pH 7.4) containing 10 mM HEPES and 1 mM dithiothreitol (DTT); and transferring the mixture to a 40 ml centrifuge tube. The culture dishes were rinsed twice with buffer, and the rinses were added to the centrifuge tube. The myocytes were centrifuged at 45,000 x g for 45 minutes and the supernatant was discarded. The pellet was resuspended in 40 mM HEPES (pH 7.4) to yield 3.5-4 mg protein/ml and homogenized with a small clearance Dounce tissue grinder (8 strokes). The membranes were centrifugated as described above, resuspended (3-4 mg protein/ml) in 40 mM HEPES (pH 7.4), and assayed for adenylyl cyclase activity immediately or stored at -80° C. and assayed within 10 days.
# The assay system used to measure adenylyl cyclase activity minimizes the formation of endogenous adenosine. The assay used was essentially as described by Romano et al. (supra). Myocyte membranes (15-25 μg protein) were incubated in 50 μl of a buffer containing 40 mM HEPES (pH 7.4), 5 mM MgCl2, 1 mM DTT, 5.5 mM KCl, 0.1 mM 2'-deoxy-cAMP (dcAMP), 0.1 mM 2'-deoxy ATP (dATP), 20 mM phosphoenolpyruvate, 2 units pyruvate kinase, 0.25 units adenosine deaminase, 1 mM ascorbic acid, 100 mM NaCl, 0.1 mM ethyleneglycol-bis (β-aminoethylether) N,N,N',N',-tetroaceticacid (EGTA), 10 μM guanosine 5'-triphosphate (GTP), and ~2×10^6 counts/minutes of [α-^32 P]dATP for 20 minutes at 30° C. The reaction was stopped by adding 40 μl of a solution containing 2% sodium dodecyl sulfate (SDS), 45 mM ATP, 1.3 mM cAMP, and [^3 H]dcAMP (~4000 count/min) and by boiling for 2 minutes.
# [2] = 100 μM adenosine administered together with 0.2 μM DPCPX
# [3] = Table 6, 10^-5 M SHA-082, 10^-5 M NECA, 10^-4 M adenosine, 2 × 10^-7 M DPCPX, 10^-5 M CGS-15943, mean ± SE, N = 6
smiles,measurement,setting,value
Nc1ncnc2c1ncn2[C@@H]1O[C@H](CO)[C@@H](O)[C@H]1O [adenosine],increase in +dL/dtmax,rat ventricular myocytes; [2],29%
same,increase in DS,rat ventricular myocytes; [2],20%
same,increase in LC,rat ventricular myocytes; [2],35%
same,increase in TPS,rat ventricular myocytes; [2],27%
same,increase in TR,rat ventricular myocytes; [2],37%
same,effect on myocyte contractility when administered alone,rat ventricular myocytes; 100 μM adenosine or 0.2 μM DPCPX,without effect
same,"+dL/dtmax, maximal rate of shortening",rat ventricular myocytes; [3],180 ± 10 μm/msec
same,"-dL/dtmax, maximal rate of relaxation",rat ventricular myocytes; [3],151 ± 10 μm/msec
same,"DS, duration of shortening",rat ventricular myocytes; [3],293 ± 16 ms
same,"LC, maximum length change (shortening) with contraction",rat ventricular myocytes; [3],16 ± 1 μm
same,"TPS, time-to-peak shortening",rat ventricular myocytes; [3],120 ± 4 ms
same,"TR, time to 75% relaxation",rat ventricular myocytes; [3],281 ± 12 ms
same,adenylyl cyclase activity above basal levels,[1],did not increase
